Data on one molecule can be found in patent US10751339B2, “Substituted aminopyrimidine compounds and methods of use” (SUNSHINE LAKE PHARMA CO., LTD., priority 2018, dated 2020).

One data set concerns PI3K-δ (RAJI). As to the kind of experiment: p-AKT HTRF assay, PI3K-δ in RAJI cells stimulated with anti-IgM. The settings on record: anti-human IgM stimulation. Format: cell-based. On the procedure:
(§1) Cells were incubated at 37° C. in a 5% CO2 atmosphere overnight. […] Medium was then aspirated and 50 μL/well of lysis buffer was added. Plates were shaked for 45 minutes at room temperature and then 16 ul/well of lysate was transferred to 384-well plate. 4 ul/well of premixed antibody was added to the wells. The plate was centrifuged at 1000 rpm at RT for 1 minute and then incubated for 4 hours at 22° C., and Phospho-AKT (ser473) Kit was used for detection.
(In general: Time-resolved FRET reads energy transfer from a long-lived donor to a nearby acceptor.)

A further data set concerns PI3K-β (786-O). Briefly: p-AKT HTRF assay, PI3K-β in 786-O cells. It is filed as cell-based. The settings on record: Homo sapiens, 786-0. On the procedure:
as §1

The target in a further data set is hERG channels (Homo sapiens (Human), UniProt Q12809). Briefly: hERG assay, manual patch-clamp in HEK-293 cells. It is filed as cell-based. The source says: Voltage clamp protocol: Computer software was used to set voltage clamp protocols. In whole-cell model, cells were held at −80 mV, first depolarized to −50 mV for 80 ms, and then depolarized to +20 mV for 4800 ms to activate the hERG channels. After that the cells were repolarized to −50 mV for 5000 ms to elicit the characteristic tail currents. Finally the cells were held at −80 mV again. The peak values of tail currents were sampled for analysis.
Manual patch-clamp protocol: The manual patch-clamp system was used to record the hERG currents in human embryonic kidney (HEK-293) cells. The cells were harvested and transferred to the recording charmer on the stage of an inverted microscope and perfused consistently with extracellular solution. The volume of the recording chamber was about 1 mL. The extracellular solution in the chamber was completely exchanged within 1 min at a perfusion rate about 1 mL/min. Patch micropipettes were pulled with micropipette puller. Pipettes were moved to the cells by Micromanipulator and a slight positive pressure was used to clear the surface before seal formation. A high-resistance seal between the surface of the plasma membrane and the tip of pipettes were achieved by a gentle suck. […]
Data was presented as mean±S.E.M. The effects of test article were normalized with the peak currents recorded in vehicle control. […]
In general terms: hERG is a cardiac potassium channel; its block is linked to QT prolongation.

Another data set deals with PI3K-γ (RAW264.7). As to the kind of experiment: p-AKT HTRF assay, PI3K-γ in RAW 264.7 cells stimulated with C5a. Format: cell-based, murine. Conditions: Mus musculus; RAW264.7 cells, C5a stimulation. On the procedure: as §1
Data set [1] is described as follows: Compound stability in human liver microsomes. Conditions: pH 7.4. Format: in vitro ADME. Put shortly: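 Compounds (5 μM, 0.05% DMSO) incubated in duplicate with liver microsomes (0.5 mg protein/mL) and 1.0 mM NADPH in 100 mM phosphate buffer pH 7.4 at 37 °C, sampled 0–60 min. Remaining compound measured by LC/MS/MS, expressed as percent of zero-time control; denatured-microsome and dextromethorphan controls included.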
(Liver microsomes are vesicles of endoplasmic reticulum, rich in cytochrome P450 enzymes.)

For the next data set, the system named is CCRF-SB. Briefly: Cell proliferation assay (CTG), CCRF-SB. Format: cell-based. The settings on record: Homo sapiens, 72 h. On the procedure:
• 1. Harvest cells during the logarithmic growth period and count cell number using Count-star. • 2. Adjust cell concentrations to […] with respective culture medium. • 3. Add 90 μL cell suspensions to 96-well plates with the final cell density of 1×10^4 cells/well. (cell concentration will be adjusted according to the data base or density optimization assay.) • 4. The next day, prepare 10× solution (Top working concentration: 10 μM of test article in media with 3.16-fold serial dilutions to achieve 9 dose levels). • 5. Dispense 10 μL drug solution of both test article and reference control in each well (duplicate for each drug concentration) of the plate.

A short description of data set [2]: Pharmacokinetic profiles in rats. Format: in vivo, rat. On the procedure: The compounds disclosed herein are assessed in pharmacokinetic studies in mice, rats, dogs or monkeys. The compounds are administered as a water solution, 2% HPMC+1% TWEEN®80 in water solution, 5% DMSO+5% solutol in saline, 4% MC suspension or capsule. For the intravenous administration, the animals are generally given at 1 or 2 mg/kg dose. For the oral (p.o.) dosing, mice and rats are generally given 5 or 10 mg/kg dose, and dogs and monkeys are generally given 10 mg/kg dose. The blood samples (0.3 mL) are drawn at 0.25, 0.5, 1.0, 2.0, 3.0, 4.0, 6.0, 8.0, 12 and 24 h time points or 0.083, 0.25, 0.5, 1.0, 2.0, 4.0, 6.0, 8.0 and 24 h time points and centrifuged at 3,000 or 4000 rpm for 2 to 10 min. The plasma solutions are collected, stored at −20° C. or −70° C. until analyzed by LC/MS/MS as described above.

Sequence of hERG channels (Q12809 whole entry, the tested form may be a part): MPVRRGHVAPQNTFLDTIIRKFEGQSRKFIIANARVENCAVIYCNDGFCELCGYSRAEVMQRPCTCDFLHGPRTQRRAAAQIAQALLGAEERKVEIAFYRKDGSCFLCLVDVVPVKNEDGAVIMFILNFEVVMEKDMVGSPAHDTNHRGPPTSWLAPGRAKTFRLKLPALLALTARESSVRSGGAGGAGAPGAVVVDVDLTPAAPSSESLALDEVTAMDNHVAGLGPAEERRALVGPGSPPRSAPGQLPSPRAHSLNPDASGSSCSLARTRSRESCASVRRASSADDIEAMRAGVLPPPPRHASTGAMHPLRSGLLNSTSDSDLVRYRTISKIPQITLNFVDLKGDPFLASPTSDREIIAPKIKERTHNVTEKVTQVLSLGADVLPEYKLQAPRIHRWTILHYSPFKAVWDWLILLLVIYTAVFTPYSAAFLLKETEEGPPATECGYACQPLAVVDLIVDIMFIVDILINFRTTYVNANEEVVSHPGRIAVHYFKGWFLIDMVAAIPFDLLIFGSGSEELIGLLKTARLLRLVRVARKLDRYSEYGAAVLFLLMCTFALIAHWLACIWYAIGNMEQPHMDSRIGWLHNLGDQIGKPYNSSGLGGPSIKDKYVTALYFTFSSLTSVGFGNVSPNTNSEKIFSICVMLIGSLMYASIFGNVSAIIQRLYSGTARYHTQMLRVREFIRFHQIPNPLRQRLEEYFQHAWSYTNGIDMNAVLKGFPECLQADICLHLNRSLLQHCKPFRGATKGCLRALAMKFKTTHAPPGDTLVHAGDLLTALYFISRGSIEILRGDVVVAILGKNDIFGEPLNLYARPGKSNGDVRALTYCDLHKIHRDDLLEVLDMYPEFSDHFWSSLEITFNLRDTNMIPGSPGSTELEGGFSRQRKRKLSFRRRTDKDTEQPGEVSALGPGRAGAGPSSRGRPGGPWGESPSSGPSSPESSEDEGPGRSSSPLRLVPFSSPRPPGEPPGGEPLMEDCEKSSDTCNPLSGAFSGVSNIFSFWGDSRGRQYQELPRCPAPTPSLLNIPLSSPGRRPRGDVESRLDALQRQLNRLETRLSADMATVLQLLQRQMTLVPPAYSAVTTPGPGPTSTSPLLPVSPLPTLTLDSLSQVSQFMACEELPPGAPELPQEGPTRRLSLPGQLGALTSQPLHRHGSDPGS

On to `Cc1noc(-c2c(N)ncnc2N[C@@H](C)c2nc3cccc(C#CCO)c3c(=O)n2-c2ccccc2)n1` [Example 34, (S)-2-(1-((6-amino-5-(3-methyl-1,2,4-oxadiazol-5-yl)pyrimidin-4-yl)amino)ethyl)-5-(3-hydroxyprop-1-yn-1-yl)-3-phenylquinazolin-4(3H)-one], for which the half-maximal inhibitory concentration (IC50) with PI3K-δ (RAJI) worked out at 0.65 nM; in the data set on PI3K-β (786-O) it was 70.3 nM; at hERG channels, 15300 nM; in the data set with PI3K-γ (RAW264.7), 128 nM; in the data set with CCRF-SB it was 318 nM. The CLint scaled at 5 μM in data set [1] (liver microsomes, in vivo CLint extrapolated from human liver microsome incubation) is 36.9 mL/min/kg. For the same molecule, the half-life at 5 μM in data set [1] (human liver microsomes 0.5 mg protein/mL, compound 5 μM, NADPH, 37° C., read-out: Human T1/2) stood at 47.1 min. In addition, the clearance in data set [2] (iv dosing 1 mg/kg) turned out to be 25 mL/min/kg. Also, the AUC(0-t) in data set [2] (rat, plasma, iv dosing 1 mg/kg) is 671 ng·h/mL. This molecule also showed a half-life in data set [2] (rat, plasma, iv dosing 1 mg/kg) of 54.6 min. For the same molecule, the Vd in data set [2] (rat, plasma, iv dosing 1 mg/kg, read-out: Vss) was found to be 1.68 L/kg. Also, the bioavailability in data set [2] (rat, plasma, oral bioavailability) stood at 56.8%.

One may read the IC50 as the concentration at which inhibition is half-maximal. Higher therefore signals weaker potency in that assay. As usually defined, the CLint scaled is the rate of metabolic loss divided by the concentration. What is called clearance is a measure of how efficiently the substance is removed, as volume per time. Read a high clearance as efficient removal. By AUC(0-t) is commonly meant the area under the concentration-time curve up to a stated or last time point. Read a low AUC(0-t) as less exposure. In general, bioavailability refers to dose-corrected exposure relative to a reference, in per cent. Read a high bioavailability as good availability.
